Tests used:
[1] = tested on: Aspergillus niger (ATCC #6275), Chaetomium globosum (ATCC #6205) and Aspergillus terreus (ATCC #10690) suspensions; experiment: TAPPI T 487 pm-99 fungal resistance of treated paper; assay type: cell-based; conditions: treated Whatman paper coupons, 28° C., 21 day test, observed weekly
Experimental: This method is used to determine the resistance of paper and paperboard to fungal growth in ideally suited controlled conditions of light, temperature, moisture, and food supply. Treated 50 mm test coupons of paper are placed on a surface of test agar, flooded with a test inoculum of fungal spores, and incubated to determine fungal resistance. The rating that is provided follows an established protocol to determine the degree of mold growth on a rating scale reported as 1) not fungal resistant; 2) moderately fungal resistant; and 3) resistant.
Challenges of treated porous surfaces, represented by selected samples of untreated paper product specified as Whatman filter paper #4 and paper product specified as Whatman filter paper #4 treated with a solution of fungicides, are exposed to designated fungal suspensions known to cause failure under certain use conditions. The test samples are prepared according to T 487 pm-99 by aseptically removing pre-sterilized 50 mm paper coupons, previously equilibrated to room temperature, and then placed in a controlled chamber at 28+/−1° C. (82.40 F) and 95%-98% RH. The chamber is fitted with a tray filled with a salt solution to maintain humidity control. The test ensues continuously for 21 days and samples are observed weekly. The panels are rated each week according to the appearance of fungal growth.
This series of tests according to the TAPPI T 487 pm-99 protocol were conducted with multiple specimens of treated and untreated (Control) paper substrates with the specified fungal species of Aspergillus niger (ATCC #6275), Chaetomium globosum (ATCC #6205), and Aspergillus terreus (ATCC #10690) suspensions. The suspensions of inoculum were harvested from 14 day potato dextrose agar cultures into sterile water, combining the culture suspensions from each fungal genus and adjusting to concentrations of 10^6/ml. Triplicate substrate samples were then prepared from sheets of cellulose fiber papers (Whatman) cut into 50 mm squares and steam sterilized. The sterilized paper coupons were immersed in a solution of each challenge solution, allowed to soak for ten minutes, removed and placed into aluminum drying trays in a drying oven for 24 hours at 67° C. The test papers were placed onto the surface of prepared agar plates containing mineral-salt agar as outlined in T 487 pm-99. Two plies of paper were treated as a single test specimen and were directly pipetted with 1 ml of fungal suspension on the surface of each test coupon. The plates were then inverted and placed into humid incubation chambers and incubated at 28° C.+/−1 C for 21 days. Observations for growth were conducted on successive weekly schedules as well as verification of test inocula to distinguish contaminants or naturally occurring molds from actual challenge organisms. Growth was defined as sporulating, hyphael appearances directly from the paper substrate. The following comparative table depicts the various solutions and resistance results: […]

[2] = tested on: suspension of fungal spores of Chaetomium globosum ATCC #6205, Aspergillus niger ATCC #6275 and Aspergillus terreus ATCC #10690; experiment: Disk diffusion method of determining susceptibility of fungi (developed from the Kirby-Bauer method); assay type: cell-based
Experimental: A disk diffusion method of determining susceptibility of fungi to Maquat 2525M 50% was developed from the Kirby-Bauer Bactericidal Disk Diffusion Method. […] This method was utilized as a screening method to achieve a rapid means of fungal inhibition after 5 days of incubation.
The inoculum was composed of a suspension of fungal spores harvested from one week cultures of ATCC #6205-Chaetomium globosum; ATCC #6275-Aspergillus niger; and, ATCC #10690-Aspergillus terreus. Once the plates were seeded with inoculum, DIFCO Concentration Disks (¼″) were impregnated with a 0.5% solution of Maquat 2525M 50%, allowed to air dry in sterile petri dishes and placed at equidistant locations on each plate. At the end of the five day incubation at 30° C., 5 plates containing four disks each were examined visually and microscopically.

| Compound | Days in Incubation [1] | Resistance Grade [1] | Resistance grade of specimens ([2]; DIFCO disks impregnated with solution (Maquat 0.5%, calcium propionate 2.5%, sodium carboxymethylcellulose 0.5%, cetylpyridinium chloride 0.125%), potato dextrose agar, 5 days at 30° C.) | Growth on disks, visual and microscopic examination ([2]; after the 5 day incubation period) |
| --- | --- | --- | --- | --- |
| CCC(=O)[O-].CCC(=O)[O-].[Ca+2] [calcium propionate] | 8 days | Not resistant | No Resistance | occluded with profuse growth |
| CCC(=O)O [1.5% propionic acid, propionic acid] | 9 days | Not resistant | – | – |
| CCCCCCCCCCCCCCCC[n+]1ccccc1 [1.25% cetylpyridinium chloride, cetylpyridinium chloride] | 15 days | – | – | – |
| c1ccc2[nH]c(-c3cscn3)nc2c1 [Thiabendazole (TBZ) 1.0% Merck AgVet, Thiabendazole] | 17 days | Moderately resistant | – | – |
